Assay results reported in US20160002247A1, “8-SUBSTITUTED IMIDAZOPYRIMIDINONE DERIVATIVE HAVING AUTOTAXIN INHIBITORY ACTIVITY” (THE UNIVERSITY OF TOKYO, priority 2013, published 2016).

biological target: T1, Human autotaxin enzyme (Homo sapiens, UniProt Q13822); assay: Evaluation of autotaxin inhibitor, Method C (Test Example 3): 18:0 Lyso PC, choline assay, Resorufin fluorescence; assay type: biochemical; settings: Assay Method C (Test Example 3), human autotaxin, 18:0 Lyso PC substrate; read-out: Inhibitory Activity (autotaxin enzyme inhibitory activity, IC50 class)
T1 construct: purchased R&D System
Summary of the method: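 Choline-coupled fluorescence readout (20 min, resorufin at 531/598 nm) followed a 2 h room-temperature reaction of human autotaxin with 18:0 Lyso PC substrate (added as 200 μM solution) in pH 7.5 Tris buffer containing MgCl2 and Triton X-100. Percent inhibition scaled to no-compound (0%) and no-enzyme (100%) wells and plotted versus concentration.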

SMILES | IC50 [nM]
CCCCCn1c(N2CCC3(CN(C(=O)OC(C)(C)C)C3)C2)cc(=O)n2cc(-c3ccc(Cl)cc3)nc12 [Compound 313] | 100 to 1000
CCCCCn1c(N(C)CC(=O)O)cc(=O)n2cc(-c3ccc(Cl)cc3)nc12 [Compound 602] | 100 to 1000
CCCCCn1c(N2CCC[C@@]2(C)C(=O)O)cc(=O)n2cc(-c3ccc(Cl)cc3)nc12 [Compound 606] | > 1000
CCCCCn1c(NC2(C(=O)O)CC2)cc(=O)n2cc(-c3ccc(Cl)cc3)nc12 [Compound 610] | > 1000
CCCCCn1c(-c2ccc(CCCO)cc2)cc(=O)n2cc(-c3ccc(Cl)cc3)nc12 [Compound 446] | 100 to 1000
CCCCCn1c(NC2(C(=O)NCCC(=O)O)CC2)cc(=O)n2cc(-c3ccc(Cl)cc3)nc12 [Compound 625] | 100 to 1000
CCCCCn1c(N2CCN(C(=O)N3CCCCC3)CC2)cc(=O)n2cc(-c3ccc(Cl)cc3)nc12 [Compound 291] | 100 to 1000
CCCCCn1c(-c2cccc(NS(C)(=O)=O)c2)cc(=O)n2cc(-c3ccc(Cl)cc3)nc12 [Compound 441] | 100 to 1000
CCCCCn1c(O[C@@H]2CO[C@H]3[C@@H]2OC[C@H]3O)cc(=O)n2cc(-c3ccc(Cl)cc3)nc12 [Compound 544] | 100 to 1000
CCCCCn1c(-c2ccc(C(=O)NC3CCOC3=O)cc2)cc(=O)n2cc(-c3ccc(Cl)cc3)nc12 (centres unmarked) [Compound 502] | 10 to 100
CCCCCn1c(-c2cnc(C#N)nc2)cc(=O)n2cc(-c3ccc(Cl)cc3)nc12 [Compound 530] | 10 to 100
CCn1c(N2C[C@H](O)C[C@H]2C(=O)N[C@H](C(=O)O)C(C)(C)C)cc(=O)n2cc(-c3ccc(Cl)cc3)nc12 [Compound 764] | 10 to 100
CCCCCn1c(N2CCC[C@H]2C(=O)NCCCn2ccnc2)cc(=O)n2cc(-c3ccc(Cl)cc3)nc12 [Compound 335] | 100 to 1000
CCn1c(N2CCC[C@H]2C(=O)N[C@@H](CCc2ccccc2)C(=O)O)cc(=O)n2cc(-c3ccc(Cl)cc3)nc12 [Compound 757] | 10 to 100
CCCCCn1c(N2CCNC[C@@H]2C(=O)NCC(=O)O)cc(=O)n2cc(-c3ccc(Cl)cc3)nc12 [Compound 666] | 10 to 100
CCCCCn1c(N2CCC[C@H](C(=O)OCC)C2)cc(=O)n2cc(-c3ccc(Cl)cc3)nc12 [Compound 671] | 100 to 1000
CCCCCn1c(-c2ccc(C(=O)NCCS(N)(=O)=O)cc2)cc(=O)n2cc(-c3ccc(Cl)cc3)nc12 [Compound 499] | 10 to 100
CCCCCn1c(-c2ccc(N3C[C@@H](CNC(C)=O)OC3=O)cc2F)cc(=O)n2cc(-c3ccc(Cl)cc3)nc12 [Compound 449] | 10 to 100
CCCCCn1c(-c2ccc(C#N)nc2)cc(=O)n2cc(-c3ccc(Cl)cc3)nc12 [Compound 462] | 10 to 100
CCCCCn1c(N2CCC[C@@H]2CC(=O)NCCC(=O)O)cc(=O)n2cc(-c3ccc(Cl)cc3)nc12 [Compound 622] | 100 to 1000
CCCCCn1c(-c2ccc(C(=O)NC(C)(C)CO)cc2)cc(=O)n2cc(-c3ccc(Cl)cc3)nc12 [Compound 477] | 10 to 100
CCCCCn1c(N2CCC[C@H]2C(=O)N[C@H](C)C(N)=O)cc(=O)n2cc(-c3ccc(Cl)cc3)nc12 [Compound 709] | 100 to 1000
CCCCCn1c(C2=CCN(C(C)=O)CC2)cc(=O)n2cc(-c3ccc(Cl)cc3)nc12 [Compound 546] | 10 to 100
CCCCCn1c(N2CCC[C@H]2C(=O)NCCC(=O)N(C)C)cc(=O)n2cc(-c3ccc(Cl)cc3)nc12 [Compound 344] | 100 to 1000
CCCCCn1c(OCC2COC2)cc(=O)n2cc(-c3ccc(Cl)cc3)nc12 [Compound 720] | 100 to 1000
CCCCCn1c(-c2ccc(S(=O)(=O)O)cc2)cc(=O)n2cc(-c3ccc(Cl)cc3)nc12 [Compound 429] | 10 to 100
CCCCCn1c(N2CCC[C@H]2C(=O)NC2CCCNC2=O)cc(=O)n2cc(-c3ccc(Cl)cc3)nc12 (some centres unmarked) [Compound 710] | 100 to 1000
CCCCCn1c(N2CCC[C@H]2C(=O)N2CCO[C@H](C(=O)O)C2)cc(=O)n2cc(-c3ccc(Cl)cc3)nc12 [Compound 680] | 10 to 100
CCCCCn1c(-c2cncc(OC)c2)cc(=O)n2cc(-c3ccc(Cl)cc3)nc12 [Compound 461] | 10 to 100

Other lines, results leading:

IC50 [nM] | SMILES
< 10 | CCCCCn1c(N2CCC[C@H]2C(=O)NCCCCN2CC(C)OC(C)C2)cc(=O)n2cc(-c3ccc(Cl)cc3)nc12 (some centres unmarked) [Compound 657]
10 to 100 | CCCCCn1c(N2C[C@@H](O)C[C@H]2C(=O)NCCC(=O)OCC)cc(=O)n2cc(-c3ccc(Cl)cc3)nc12 [Compound 594]
10 to 100 | O=C(O)c1ccc(-c2cc(=O)n3cc([C@H]4CC[C@H](C(F)(F)F)CC4)nc3n2CCCC(F)(F)F)cc1 [Compound 164]
10 to 100 | CCCCCn1c(N2CCCC2CC(C)C)cc(=O)n2cc(-c3ccc(Cl)cc3)nc12 (centres unmarked) [Compound 308]
10 to 100 | CCCCCn1c(-c2cccnc2)cc(=O)n2cc(-c3ccc(Cl)cc3)nc12 [Compound 407]
10 to 100 | CCCCCn1c(N2CCN(C(=O)OC(C)(C)C)C[C@H]2C(=O)NCC(=O)O)cc(=O)n2cc(-c3ccc(Cl)cc3)nc12 [Compound 632]
10 to 100 | CCCCCn1c(-c2ccc(OCCO)c(S(N)(=O)=O)c2)cc(=O)n2cc(-c3ccc(Cl)cc3)nc12 [Compound 451]
< 10 | CC(C)(C)[C@H](NC(=O)[C@@H]1CCCN1c1cc(=O)n2cc(-c3ccc(Cl)cc3)nc2n1Cc1ccccc1)C(=O)O [Compound 746]
10 to 100 | CCCCCn1c(-c2ccc(C(=O)NCCNC)cc2)cc(=O)n2cc(-c3ccc(Cl)cc3)nc12 [Compound 522]
10 to 100 | CCCCCn1c(-c2ccc(C(=O)NCCCO)cc2)cc(=O)n2cc(-c3ccc(Cl)cc3)nc12 [Compound 481]
10 to 100 | CCCCCn1c(N2CCC[C@H]2C(=O)N(C)CC(=O)N(C)CC(=O)OC)cc(=O)n2cc(-c3ccc(Cl)cc3)nc12 [Compound 684]
10 to 100 | CCCCCn1c(N2CCC[C@H]2C(=O)NC2(C(=O)OC)CC2)cc(=O)n2cc(-c3ccc(Cl)cc3)nc12 [Compound 693]
10 to 100 | CCCCCn1c(N2CCC[C@H]2C(=O)NCC(=O)C(C)(C)C)cc(=O)n2cc(-c3ccc(Cl)cc3)nc12 [Compound 706]
10 to 100 | CCCCCn1c(-c2ccc(S(=O)(=O)NC)cc2)cc(=O)n2cc(-c3ccc(Cl)cc3)nc12 [Compound 431]
10 to 100 | CCCCCn1c(N2CCC[C@H]2C(=O)N[C@@H](Cc2c[nH]cn2)C(=O)O)cc(=O)n2cc(-c3ccc(Cl)cc3)nc12 [Compound 721]
10 to 100 | CCCCCn1c(-c2ccc(C(=O)NCCS(=O)(=O)N3CCOCC3)cc2)cc(=O)n2cc(-c3ccc(Cl)cc3)nc12 [Compound 501]
10 to 100 | CCCCCn1c(-c2cnc(OC)nc2OC)cc(=O)n2cc(-c3ccc(Cl)cc3)nc12 [Compound 454]
10 to 100 | CCCCCn1c(-c2ccc(C(=O)NC)cc2)cc(=O)n2cc(-c3ccc(Cl)cc3)nc12 [Compound 495]
10 to 100 | O=C(O)CNC(=O)[C@@H]1C[C@@H](O)CN1c1cc(=O)n2cc(-c3ccc(Cl)cc3)nc2n1Cc1ccccc1 [Compound 750]
10 to 100 | C#CCNC(=O)c1ccc(-c2cc(=O)n3cc(-c4ccc(Cl)cc4)nc3n2CCCCC)cc1 [Compound 484]
10 to 100 | NC(=O)c1ccc(-c2cc(=O)n3cc(-c4ccc(Cl)cc4)nc3n2CCCC(F)(F)F)cc1 [Compound 382]
10 to 100 | CCCCCn1c(-c2ccc(C(=O)NCCS(C)(=O)=O)cc2)cc(=O)n2cc(-c3ccc(Cl)cc3)nc12 [Compound 494]
10 to 100 | CCCCCn1c(C)c(CCO)c(=O)n2cc(-c3ccc(Cl)cc3)nc12 [Compound 207]
< 10 | CCCCCn1c(N2CCC[C@H]2C(=O)N2CCCC2C(=O)O)cc(=O)n2cc(-c3ccc(Cl)cc3)nc12 (some centres unmarked) [Compound 349]
10 to 100 | CCCCCn1c(N2CCC3(COC3)C2)cc(=O)n2cc(-c3ccc(Cl)cc3)nc12 [Compound 715]
< 10 | CCCCCn1c(N2C[C@@H](O)C[C@H]2C(=O)NCCC(=O)O)cc(=O)n2cc(-c3ccc(Cl)cc3)nc12 [Compound 582]

same assay, conditions: Assay Method C, human autotaxin, 18:0 Lyso PC substrate; read-out: Inhibitory Activity

IC50 [nM] | SMILES
> 1000 | O=C(O)Cc1cn(CCCC(F)(F)F)c2nc(-c3ccc(Cl)cc3)cn2c1=O [Compound 827]
100 to 1000 | C[C@@H]1COC[C@H](C)N1C(=O)Cc1cn(CCCC(F)(F)F)c2nc(-c3ccc(Cl)cc3)cn2c1=O [Compound 850]
10 to 100 | CCCCCn1c(N2CCC[C@H]2C(=O)N[C@@H](CC(C)C)C(N)=O)cc(=O)n2cc(-c3ccc(Cl)cc3)nc12 [Compound 797]
100 to 1000 | CCOC(=O)c1cccc(Cc2cn(CCCCC#N)c3nc(-c4ccc(Cl)cc4)cn3c2=O)c1 [Compound 821]
10 to 100 | C[C@H]1CCCCN1C(=O)Cc1cn(CCCC(F)(F)F)c2nc(-c3ccc(Cl)cc3)cn2c1=O [Compound 867]
100 to 1000 | CNC(=O)Cc1cn(CCCC(F)(F)F)c2nc(-c3ccc(Cl)cc3)cn2c1=O [Compound 851]
10 to 100 | CCCCCn1c(N2CCC[C@H]2C(=O)NCC(=O)OC)cc(=O)n2cc(-c3ccc(Cl)cc3)nc12 [Compound 816]
10 to 100 | N#CC1CN(C(=O)Cc2cn(CCCC(F)(F)F)c3nc(-c4ccc(Cl)cc4)cn3c2=O)CCO1 (centres unmarked) [Compound 862]
100 to 1000 | CN(CC#N)C(=O)Cc1cn(CCCC(F)(F)F)c2nc(-c3ccc(Cl)cc3)cn2c1=O [Compound 834]
10 to 100 | CCCCCn1c(N2CCC[C@H]2C(=O)Nc2cc(O)no2)cc(=O)n2cc(-c3ccc(Cl)cc3)nc12 [Compound 799]
100 to 1000 | CCCCCn1c(N2CCCC(C(=O)O)C2C)cc(=O)n2cc(-c3ccc(Cl)cc3)nc12 (centres unmarked) [Compound 809]
100 to 1000 | CCCCCn1c(N2CCC[C@H]2C(=O)NCC(O)CC(F)(F)F)cc(=O)n2cc(-c3ccc(Cl)cc3)nc12 (some centres unmarked) [Compound 786]

same assay, conditions: Assay Method: Method C (Test Example 3); read-out: Inhibitory Activity (Enzyme Inhibitory Activity, IC50)

IC50 [nM] | SMILES
100 to 1000 | CCCC(=O)Cn1c(C)cc(=O)n2cc(-c3ccc(Cl)cc3)nc12 [Compound 41]
